From EP0077961A2, “Substituted 2-nitro-5-(4-trifluoromethyl-phenoxy) toluols, process for their preparation and their use as herbicides and plant growth regulators” (BAYER AG, priority 1981, dated 1983) come the findings set out here.

For the assay, the system named is Baumwollpflanzen. The experiment in a line: Defoliation and desiccation of the leaves of cotton (Beispiel A). In kind it is in vivo, Baumwolle. To be noted: greenhouse; cotton plants sprayed dripping wet at full unfolding of the 5th leaf; rated after 1 week against control plants; concentration not given. The text has this: Entlaubung und Austrocknung der Blätter bei Baumwolle
Lösungsmittel: 30 Gewichtsteile Dimethylformamid Emulgator: 1 Gewichtsteil Polyoxyethylen-SorbitanMonolaurat
Zur Herstellung einer zweckmäßigen Wirkstoffzubereitung vermischt man 1 Gewichtsteil Wirkstoff mit den angegebenen Mengen Lösungsmittel und Emulgator und füllt mit Wasser auf die gewünschte Konzentration auf.
Baumwollpflanzen werden im Gewächshaus bis zur vollen Entfaltung des 5. Folgeblattes angezogen. In diesem Stadium werden die Pflanzen tropfnaß mit den Wirkstoffzubereitungen besprüht. Nach 1 Woche werden der Blattfall und das Austrocknen der Blätter im Vergleich zu den Kontrollpflanzen bonitiert. Es bedeuten: • 0 kein Austrocknen der Blätter, kein Blattfall • + leichtes Austrocknen der Blätter, geringer Blattfall • ++ starkes Austrocknen der Blätter, starker Blattfall • sehr starkes Austrocknen der Blätter, sehr starker Blattfall

For the compound `CC(=O)OCc1cc(Oc2ccc(C(F)(F)F)cc2Cl)ccc1[N+](=O)[O-]` [Beispiel 1, Essigsäure-(2-nitro-5-(2-chlor-4-trifluormethyl-phenoxy)-benzyl)-ester], the “Blattfall und Austrocknen der Blätter” value is on record as “starke Wirksamkeit”.
